According to PubChem BioAssay (NCI):
Several values for one entry are separate records, joined by “and”; a condition that tells them apart may be missing. Identical values can stand only once.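 1) Cells in 96-well plates. 2) Compound, 48 h, 5 concentrations. 3) Linear interpolation between surrounding doses. 4) Unreached endpoint = highest concentration. GI50 = concentration required for 50% inhibition of growth. TGI marks complete inhibition of growth.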

What was measured:
Experiment in all cases: NCI anticancer screen, dose series, 48 h
DU-145 prostate = system: DU-145 prostate
SF-268 CNS = system: SF-268 CNS
T-47D breast = system: T-47D breast
786-0 renal = system: 786-0 renal
HL-60(TB) leukemia = system: HL-60(TB) leukemia
KM12 colon = system: KM12 colon
TK-10 renal = system: TK-10 renal
SK-MEL-2 melanoma = system: SK-MEL-2 melanoma
A498 renal = system: A498 renal

| Compound | TGI (DU-145 prostate) [µM] | TGI (SF-268 CNS) [µM] | TGI (T-47D breast) [µM] | TGI (786-0 renal) [µM] | TGI (HL-60(TB) leukemia) | TGI (KM12 colon) [µM] | TGI (TK-10 renal) [µM] | TGI (SK-MEL-2 melanoma) [µM] | TGI (A498 renal) [µM] | GI50 (DU-145 prostate) [µM] | GI50 (SF-268 CNS) [µM] | GI50 (T-47D breast) [µM] | GI50 (A498 renal) [µM] | GI50 (KM12 colon) [µM] | GI50 (TK-10 renal) [µM] | GI50 (SK-MEL-2 melanoma) [µM] | GI50 (HL-60(TB) leukemia) [µM] |
| --- | --- | --- | --- | --- | --- | --- | --- | --- | --- | --- | --- | --- | --- | --- | --- | --- | --- |
| N#Cc1c(-c2ccc(Cl)cc2)c2c(n(C3OC(CO)C(O)C(O)C3O)c1=S)CCC2 (stereo not drawn) | > 100 | 84.7 | 45.8 | > 100 | > 100 µM | > 100 | > 100 | > 100 | – | – | – | – | – | – | – | – | – |
| CCOC(=O)C(NC(=O)CC)(Nc1cc(C)on1)C(F)(F)F (stereo not drawn) | – | > 100 | > 100 | > 100 | > 100 µM | – | > 100 | > 100 | – | – | – | – | – | – | – | – | – |
| COC1OC2COC1(OC)C1OC(C)(C)OC21 (stereo not drawn) | > 100 | > 100 | > 100 | > 100 | – | > 100 | > 100 | > 100 | > 100 | – | – | – | – | – | – | – | – |
| Nc1ccccc1CC(O)C(=O)O (stereo not drawn) | > 100 | > 100 | > 100 | > 100 | > 100 µM | > 100 | > 100 | – | > 100 | – | – | – | – | – | – | – | – |
| CC1CC/C(=C\c2ccc(Cl)cc2)C2OC(N)=C(C#N)C(c3ccc(Cl)cc3)=C12 (stereo not drawn) | 34.5 | 31.2 | 17.8 | 26.5 | 27.4 µM | 28.8 | 41.3 | 27.2 | – | – | – | – | – | – | – | – | – |
| CCN(C(=S)N[C@H](C(=O)N[C@@H](C)C(=O)OC)C(C)C)c1ccccc1 | > 100 | – | > 100 | > 100 | – | > 100 | > 100 | > 100 | – | – | – | – | – | – | – | – | – |
| O=C(OCCN=c1c2ccccc2ccc2ccccc12)c1ccc([N+](=O)[O-])cc1 | > 100 | > 100 | > 100 | > 100 | > 100 µM | > 100 | > 100 | > 100 | – | – | – | – | – | – | – | – | – |
| Cc1c(NC(=O)CSC(=S)N2CCN(Cc3ccccc3)CC2)c(=O)n(-c2ccccc2)n1C | > 100 | > 100 | > 100 | > 100 | – | > 100 | > 100 | > 100 | – | – | – | – | – | – | – | – | – |
| COc1ccc(-c2cc(-c3cc4cc(Br)ccc4nc3Cl)c(C#N)c(N)n2)cc1 | > 12.5 | > 12.5 | > 12.5 | > 12.5 | > 12.5 µM | > 12.5 | – | > 12.5 | – | – | – | – | – | – | – | – | – |
| NNC(=O)Cn1c2ccc(Br)cc2c2nc3ccccc3nc21 | > 100 | > 100 | > 100 | > 100 | – | > 100 | > 100 | > 100 | > 100 | – | – | – | – | – | – | – | – |
| O=c1c2cc(I)ccc2nc(-c2cccs2)n1-c1ccc(O)cc1 | 19.7 | 32.8 | 10.7 | 29.8 | 36.7 µM | 25.1 | 23.3 | 29.9 | – | – | – | – | – | – | – | – | – |
| C(CCCCc1nnc(N2CCCCC2)o1)CCCc1nnc(N2CCCCC2)o1 | > 100 | > 100 | – | > 100 | > 100 µM | > 100 | > 100 | > 100 | > 100 | – | – | – | – | – | – | – | – |
| CCN(CC)c1ccc2cc(C(=O)Nc3cccc4ccccc34)c(=N)oc2c1 | > 100 | > 100 | > 100 | > 100 | > 100 µM | > 100 | > 100 | > 100 | – | – | – | – | – | – | – | – | – |
| COc1ccc(NC(C)=O)cc1N1C(=O)/C(=C\c2cc(OC)c(OC)c(OC)c2)SC1c1ccccc1 (stereo not drawn) | > 100 | – | > 100 | > 100 | 41 µM | > 100 | > 100 | > 100 | > 100 | – | – | – | – | – | – | – | – |
| CSC1=N/C(=C\c2ccco2)C(=O)N1CN1CCOCC1 | > 100 | > 78.3 | > 100 | > 100 | – | > 100 | > 100 | > 100 | > 100 | – | – | – | – | – | – | – | – |
| CCOc1cc(C2CC(c3ccc(NS(=O)(=O)c4cc([N+](=O)[O-])ccc4C)cc3)=NN2c2ccc([N+](=O)[O-])cc2[N+](=O)[O-])ccc1O (stereo not drawn) | 45.1 | 43.9 | 60.2 | 6.71 | > 100 µM | > 100 | 33.7 | 44.3 | – | – | – | – | – | – | – | – | – |
| c1ccc2c(c1)CCc1c-2n(CCN2CCOCC2)c2ccccc12 | > 100 | > 100 | > 100 | > 100 | – | 27.3 | > 100 | 25.8 | – | – | – | – | – | – | – | – | – |

| Compound | TGI (DU-145 prostate) [µM] | TGI (SF-268 CNS) [µM] | TGI (T-47D breast) [µM] | TGI (786-0 renal) [µM] | TGI (HL-60(TB) leukemia) | TGI (KM12 colon) [µM] | TGI (TK-10 renal) [µM] | TGI (SK-MEL-2 melanoma) [µM] | TGI (A498 renal) [µM] | GI50 (DU-145 prostate) [µM] | GI50 (SF-268 CNS) [µM] | GI50 (T-47D breast) [µM] | GI50 (A498 renal) [µM] | GI50 (KM12 colon) [µM] | GI50 (TK-10 renal) [µM] | GI50 (SK-MEL-2 melanoma) [µM] | GI50 (HL-60(TB) leukemia) [µM] |
| --- | --- | --- | --- | --- | --- | --- | --- | --- | --- | --- | --- | --- | --- | --- | --- | --- | --- |
| Cc1cc(N2CCCC2)nc(N(CCNc2ccnc3cc(Cl)ccc23)Cc2ccco2)n1 | > 100 | > 100 | 6.5 | – | – | > 100 | 31.3 | > 100 | 7.79 | 6.72 | 11.7 | 2.39 | 1.92 | 3.86 | 5.46 | 18 | – |
| COC(=O)c1cc2ccc(OC(C)=O)c(OC(C)=O)c2cn1 | 76.3 | 53 | – | 33 | 8.21 µM and 3.8 µM | 33.6 | 34.9 | 36.7 | 48.7 | – | – | – | – | – | – | – | 1.63 |
| COc1ccc(C(SC2C(O)C(CO)OC2n2ccc(N)nc2=O)(c2ccccc2)c2ccc(OC)cc2)cc1 (stereo not drawn) | 39.4 | 39.5 | 47.4 | 30.8 | 69.4 µM | 71.2 | 66.2 | 33 | – | – | – | – | – | – | – | – | – |
| Nc1ncnc2c1nnn2C1CCC(CP(=O)(O)O)C1 (stereo not drawn) | > 100 | > 100 | > 100 | > 100 | > 100 µM | > 100 | > 100 | > 100 | – | – | – | – | – | – | – | – | – |
| C/C=C(/C)C(=O)O[C@H](C[C@@H](C)[C@H]1CC(c2ccoc2)OC1=O)[C@@]1(C)C(=O)CCC2O[C@]21C (stereo partly drawn) | > 100 | – | > 100 | > 100 | > 100 µM | > 100 | > 100 | > 100 | > 100 | – | – | – | – | – | – | – | – |
| COc1ccc(-c2c(C#N)c(S)n(NS(=O)(=O)c3ccc(C)cc3)c(=O)c2C#N)cc1 | – | 88 | – | 31.7 | 33.2 µM | 77.5 | > 100 | 32.1 | > 100 | – | – | – | – | – | – | – | – |
| O=c1oc2ccccc2cc1-c1cn2cc(Cl)ccc2n1 | > 36.8 | 16.7 | > 54.9 | 8.95 | > 61.7 µM | 12.1 | 22.3 | 24.9 | – | – | – | – | – | – | – | – | – |
| CC1(O)CC(=O)c2c(cc3ccc(-c4c5c(c(O)c6c(O)cccc46)C(=O)CC(C)(O)C5)c(O)c3c2O)C1 (stereo not drawn) | 3.43 | 1.81 | – | 7.64 | 0.772 µM | 0.24 | 10.3 | 0.897 | 3.53 | – | – | – | – | – | – | – | – |
| COc1cc(/C=C2/C[C@H]3[C@@H]4CC=C5C[C@@H](OC(C)=O)CC[C@]5(C)[C@H]4CC[C@]3(C)NC2=O)cc(OC)c1OC | 55.3 | 76 | 72.8 | 36.7 | – | > 100 | 83.3 | 52.4 | – | – | – | – | – | – | – | – | – |
| O=C1c2cc3c(cc2CC12Cc1ccc4c(c1C2=O)CCCC4)CCCC3 (stereo not drawn) | > 100 | > 100 | > 100 | 46.1 | > 100 µM | – | > 100 | > 100 | 59.7 | – | – | – | – | – | – | – | – |
| CC(=O)Nc1ccc(OC2=CCN(C)CC2)cc1 | > 100 | > 100 | > 100 | > 100 | > 100 µM | > 100 | > 100 | > 100 | – | – | – | – | – | – | – | – | – |
| O=C(O)c1ccn(-c2cccc(-n3ccc(C(=O)O)n3)n2)n1 | > 100 | > 100 | – | > 100 | > 100 µM | > 100 | > 100 | > 100 | – | – | – | – | – | – | – | – | – |
| COc1ccc(-c2cc(-c3ccc(Nc4ccnc5cc(Cl)ccc45)cc3)[nH]c(=O)c2C#N)c2ccccc12 | > 32.7 | > 96.6 | – | 18.3 | 6.04 µM | > 100 | 29.7 | > 100 | 49.7 | – | – | – | – | – | – | – | – |
| O=C1/C(=N\S(=O)(=O)c2ccccc2)C([n+]2ccc(Cc3ccccc3)cc2)=C([O-])c2ccccc21 | 2.89 | 3.9 | 13 | 3.58 | – | 4.7 | 6.2 | 3 | – | – | – | – | – | – | – | – | – |
| CSc1n[nH]c(N)c1C(=O)Nc1ccc(C)cc1 | > 100 | > 100 | 94.8 | > 100 | > 100 µM | – | > 100 | > 100 | 82.7 | – | – | – | – | – | – | – | – |
| C[C@@H]1CC[C@H]2C(C(O)CCCCC(O)C3=C(C(F)(F)F)O[C@@H]4O[C@@]5(C)CC[C@H]6[C@H](C)CC[C@@H]3[C@@]46OO5)=C(C(F)(F)F)O[C@@H]3O[C@@]4(C)CC[C@@H]1[C@]32OO4 (stereo partly drawn) | > 100 | > 100 | 9.02 | – | > 100 µM | > 100 | > 100 | > 100 | > 100 | 99.9 | 19.5 | 2.52 | 45.6 | 4.71 | > 100 | > 100 | 6.44 |
| COc1ccc(C(=O)/C=C/c2c(Cl)c3c(c(OC)c2Cl)OCC(=O)N3)cc1 | > 100 | – | – | – | 10.6 µM | – | 6.09 | 5.94 | 37.2 | 3.17 | – | – | 3.07 | – | 2.55 | 2.19 | 2.49 |
